{"source": "patent US11332503B2", "about": "“Peptides for treatment and prevention of hyperglycaemia” (UNIVERSITE DE STRASBOURG, priority 2017, dated 2022)", "tested_on": "human adipocytes", "assay": "Glucose entry in human adipocytes after native or stapled peptide treatment (FIG. 4D-E)", "assay_type": "cell-based", "conditions": "native peptide, absence of insulin", "from_the_text": "FIG. 4: In vitro characterization of two peptides for their glucose absorption triggering capacity. • (A) Representative picture depicting the cellular entry assessment of the mixture of FAM-labelled stapled peptides A (SEQ ID No 9) and B (SEQ ID No 11) in human adipocytes. DIC: Differential interference contrast mode for living cell acquisition in left panel. In right panel, fluorescent detection of the FAM-labelled peptide with the labelled plasma membrane (PM). • (B) 3D images of the cellular uptake of PATAD peptides identified in FIG. 3; either peptide A (left panel) or peptide B (right panel) treated adipocyte showing the spots inside the peptide inside the adipocyte. • (C) Photographs showing absorption of 2-NBDG in absence of INS in adipocytes following treatment with a combination of the stapled peptides A and B. • (D) Quantification of intracellular glucose analogue 2-NB in absence of INS in adipocytes following the indicated peptide treatment (n=8 per group). • (E) Quantification of intracellular glucose analogue 2-NB in presence of INS in adipocytes following the indicated peptide treatment (n=8 per group). […]\nMature adipocytes were cultured in 96 well plate. […] 24 hours later, the glucose absorption capacity if the treated cells were assessed using the Glucose Uptake Colorimetric Assay kit from Bio Vision (Catalog #: K676-100). […]"}
{"sequence": "SICKGLMTKHPAKRLGCGPEG (native or hydrocarbon-stapled; listed as Homo sapiens) [peptide B, PATAD peptide from human αPKC, tested native and stapled]", "values": [{"measurement": "entry of glucose into the adipocyte", "result": "significant entry of glucose"}]}
